Consider one compound from patent publication US8334403B1, “C-lysine conjugates as pH-controlled, light-activated reagents for double stranded DNA cleavage and associated methods” (Florida State University Research Foundation, Inc., priority 2005, dated 2012).

Data set [1] concerns calf thymus (CT) DNA. Briefly: UV-Vis absorbance titration with DNA. The format is binding. Particulars: pH 8, 10 μM, 20 mM phosphate buffer. On the procedure:
General information. ^1H, ^13C and ^19F NMR were collected on a Varian Gemini 300 MHz NMR spectrometer and a Bruker 300 MHz NMR spectrometer. Mass spectrometry data was collected on a Jeol JMS-600H. UV spectra were recorded on a Shimadzu UV-2100. Fluorescence spectra were obtained with SPEX FluoMax spectrofluorimeter using right-angle geometry. pH was adjusted with AB 15 plus pH meter (Accument) after standardization at 25° C. All buffers were prepared and pH-adjusted at room temperature (25° C.). Plasmid DNA Photocleavage. pBR322 plasmid DNA (4,361 b/p; from BioLabs Inc., 1 μg/μL solution in 10 mM Tris-HCl (pH 8.0), and 1 mM EDTA buffer) was diluted to a concentration of 0.01 μg/μL. The solution containing cleavage agent, DNA (30 μM/bp) in 20 mM sodium phosphate buffer was incubated for 1 hour at 30° C. Samples were placed on ice at a distance of 20 cm from 200 W Hg—Xe lamp (Spectra-Physics, Laser & Photonics Oriel Instruments with long pass filter with 324 nm cut-off wavelength). Electrophoretic Analysis. The gel electrophoresis was carried out in 1×TBE buffer at 80 V using Miligel FisherBiotech Horizontal Electrophoresis System. All gels were run on 1% agarose slab gels. Before loading, the DNA samples were mixed with 0.33 volume of tracking dye containing bromophenol blue (0.25%) and glycerol (30%) in water. After staining in ethidium bromide solution (2 μg/ml) for 1 hour, the gel was washed with water and pictures were taken with Polaroid 3000ISO type 667 film. The relative quantities of the supercoiled, nicked, and linear DNA were calculated by integrating the “area” of each spot by the image analyzer software Total/Lab (Nonlinear Dynamics Ltd., UK). […] Absorbance and fluorescence titration with DNA. The concentrations of calf thymus DNA stock solution was determined spectophotometrically using the following molar absorptovity values: 1.32×10^4 M^−1 cm^−1 (per base pair) at 260 nm. […]

The test system of data set [2] is UMRC3 cells. The data set can be described thus: RCC cell proliferation assay, UMRC3. The format is cell-based. Particulars: Homo sapiens, UMRC3, UV 350 nm 10 minutes, 72 hours. How it is done:
(§1) FIG. 23 provides the results of cell proliferation assays using three different RCC cell lines: (a) UMRC3, (b) UMRC6 and (c) 786-O, and compounds I-5; RCC cells were resuspended in media and treated with UV radiation (350 nm) for 10 minutes with and without indicated compounds; control cells were exposed to the indicated compound 1-5 at final concentration of 10 μM; cell numbers determined after 72 hours as described in the SI Section;
(§2) The ability of compounds 1-5 to inhibit cell proliferation in three human clear cell renal cell carcinoma (RCC) cell lines was tested in the dark and under photoactivation (FIG. 23). No difference was detected in the control experiments between cells not exposed to UV versus those that were exposed to UV at 350 nm for 10 minutes in any of the three RCC cell lines tested (FIG. 23 A, B & C; first two columns).

Data set [3] has as its system CT DNA. Briefly: Ethidium bromide displacement assay. Format: binding, calf. The note with it: 10 μM ethidium bromide, 10 μM CT DNA. On the procedure: (§3) General information. ^1H, ^13C and ^19F NMR were collected on a Varian Gemini 300 MHz NMR spectrometer and a Bruker 300 MHz NMR spectrometer. Mass spectrometry data was collected on a Jeol JMS-600H. UV spectra were recorded on a Shimadzu UV-2100. Fluorescence spectra were obtained with SPEX FluoMax spectrofluorimeter using right-angle geometry. pH was adjusted with AB 15 plus pH meter (Accument) after standardization at 25° C. All buffers were prepared and pH-adjusted at room temperature (25° C.). Plasmid DNA Photocleavage. pBR322 plasmid DNA (4,361 b/p; from BioLabs Inc., 1 μg/μL solution in 10 mM Tris-HCl (pH 8.0), and 1 mM EDTA buffer) was diluted to a concentration of 0.01 μg/μL. The solution containing cleavage agent, DNA (30 μM/bp) in 20 mM sodium phosphate buffer was incubated for 1 hour at 30° C. […] The relative quantities of the supercoiled, nicked, and linear DNA were calculated by integrating the “area” of each spot by the image analyzer software Total/Lab (Nonlinear Dynamics Ltd., UK). […] Absorbance and fluorescence titration with DNA. The concentrations of calf thymus DNA stock solution was determined spectophotometrically using the following molar absorptovity values: 1.32×10^4 M^−1 cm^−1 (per base pair) at 260 nm. […]

The nature of data set [4]: UV-absorption titration determination of pKa. The format is physicochemical. The note with it: absorption. How it is done: (§4) General information. ^1H, ^13C and ^19F NMR were collected on a Varian Gemini 300 MHz NMR spectrometer and a Bruker 300 MHz NMR spectrometer. Mass spectrometry data was collected on a Jeol JMS-600H. UV spectra were recorded on a Shimadzu UV-2100. Fluorescence spectra were obtained with SPEX FluoMax spectrofluorimeter using right-angle geometry. pH was adjusted with AB 15 plus pH meter (Accument) after standardization at 25° C. All buffers were prepared and pH-adjusted at room temperature (25° C.). Plasmid DNA Photocleavage. pBR322 plasmid DNA (4,361 b/p; from BioLabs Inc., 1 μg/μL solution in 10 mM Tris-HCl (pH 8.0), and 1 mM EDTA buffer) was diluted to a concentration of 0.01 μg/μL. The solution containing cleavage agent, DNA (30 μM/bp) in 20 mM sodium phosphate buffer was incubated for 1 hour at 30° C. Samples were placed on ice at a distance of 20 cm from 200 W Hg—Xe lamp (Spectra-Physics, Laser & Photonics Oriel Instruments with long pass filter with 324 nm cut-off wavelength). Electrophoretic Analysis. The gel electrophoresis was carried out in 1×TBE buffer at 80 V using Miligel FisherBiotech Horizontal Electrophoresis System. All gels were run on 1% agarose slab gels. Before loading, the DNA samples were mixed with 0.33 volume of tracking dye containing bromophenol blue (0.25%) and glycerol (30%) in water. After staining in ethidium bromide solution (2 μg/ml) for 1 hour, the gel was washed with water and pictures were taken with Polaroid 3000ISO type 667 film. The relative quantities of the supercoiled, nicked, and linear DNA were calculated by integrating the “area” of each spot by the image analyzer software Total/Lab (Nonlinear Dynamics Ltd., UK). The amount of supercoiled DNA was multiplied by factor of 1.4 to account for reduced ethidium bromide intercalation into supercoiled DNA. pH titration by ^1H-NMR. pH* of compound 8 (3 mM) solution in D2O containing 0.05 wt % 3-(trimethylsilyl)propionic-2,2,3,3-d4 acid, sodium salt (TSP-d4) was adjusted with 10 wt % DCI and NaOD in D2O at 25° C. under argon purged condition. Spectrometric determinations of pKa. pH of 10 μM of compound solution in H2O was adjusted with 10, 100 mM HCl (aq) and NaOH (aq) solution under argon purged condition. Excitation wavelength was 330 nm and polymethacrylate fluorimeter cuvettes were used. Absorbance and fluorescence titration with DNA. The concentrations of calf thymus DNA stock solution was determined spectophotometrically using the following molar absorptovity values: 1.32×10^4 M^−1 cm^−1 (per base pair) at 260 nm. All experiments were done in 20 mM sodium phosphate buffer at 25° C. and polymethacrylate fluorimeter cuvettes were used. The same amount of DNA was added to both sample and reference cuvettes during UV/Vis titration. Determination of excited state lifetimes. The concentration of compound solution was 10 μM in 20 mM sodium phosphate buffer. The photoluminescence lifetime measurements were conducted by exciting the samples with the output of a Nd:VO—4 (Spectra-Physics Vanguard, 2 W, 532 nm, 76 MHz, 10 ps) pumped R6G dye laser (Coherent 702-1). The output of the dye laser (600 nm, Rhodamine 6G) was cavity dumped at 1.9 MHz and frequency doubled using a BBO crystal to excite the fluorophore (the excitation wavelength used was 290 nm). Samples were excited with <1 mW power and the emission was collected at right angles onto a Chromex S3 500 is 0.5 m imaging monochromator with a 50 g/mm grating and 0.5 nm resolution. […]

Data set [5] relates to calf thymus (CT) DNA. Briefly: Fluorescence (emission) titration with DNA. Format: binding. The note with it: 10 μM, 20 mM phosphate buffer. How it is done: as §3
A short description of data set [6]: Fluorometric (emission) determination of pKa. The format is physicochemical. How it is done:
as §4

Data set [7] relates to three human clear cell renal cell carcinoma (RCC) cell lines (UMRC3, UMRC6, 786-O). Briefly: RCC cell proliferation assay, three cell lines together. Particulars: 10 μM. Format: cell-based. On the procedure:
as §1, §2

The test system of data set [8] is LNCap human prostate adenocarcinoma cells. Briefly: LNCap cell proliferation assay. The format is cell-based.
Data set [9] can be described thus: Solubility / aggregation in water. Particulars: higher pH values (~8). Format: physicochemical. From the text: The decrease in solubility leads to the apparent aggregation and distortion of potentiometric curves at the higher pH. This distortion prevents accurate curve fitting (see FIG. 25). Thus, we had to resort to alternative spectral methods. Fortunately, there is a selection of convenient procedures which provide complementary information which can be used for cross-checking the accuracy of the alternative approaches.

Where “and” joins values, the source holds several entries; their conditions need not be identical. Identical values can stand only once.

What is called mortality is the percentage killed. Low readings indicate more survivors, high ones fewer survivors. Regarding `Cl.Cl.NCCCC[C@H](N)C(=O)Nc1ccc(C#Cc2c(F)c(F)nc(F)c2F)cc1` [Compound 4, (S)-2,6-Diamino-hexanoic acid [4-(2,3,5,6-tetrafluoro-pyridin-4-ylethynyl)-phenyl]-amide dihydrochloride], the “hypochromicity on titration with DNA” value in data set [1] turned out to be 12%. Further, the mortality at 10 µM in data set [2] worked out at 94%. Further, the “displacement of intercalated ethidium bromide from its complex with DNA” value in [3] is recorded as “does not lead to the displacement”. Further, the pKa1 in data set [4] (α-amino group (4, 6), ε-amino group (7)) was 6.9; in data set [6] (emission, α-amino group (4, 6), ε-amino group (7), dihydrochloride) it was 7.0 and 6.98. In addition, in data set [4] (ε-amino group), the pKa2 entry is on record as “-/9.5”. Moreover, the “change in fluorescence upon DNA titration” value in [5] is listed as “increase in fluorescence”. In data set [6] (difference to compound 6), the “α-pKa lower than the pKa for alanine conjugate 6” value is given as about 0.5 units. Also, the “decrease in the basicity of the α-amino group relative to phenyl conjugate 8” value in data set [6] (difference to compound 8) is 0.5-0.6 pKa units. Also, the “cytotoxicity in the dark” value in data set [7] was “considerably less cytotoxic in the dark”. Further, the LNCap cells destroyed entry in data set [8] (10 nM, UV 10 minutes, counted after 48 h) is recorded as “more than 90%”. Besides, the toxicity without light result in data set [8] (no UV) is “almost no toxicity”. For the same compound, in data set [9], the aggregation and precipitation entry is “does not aggregate and precipitate”.
